Results from PubChem BioAssay AID1963974 (Molecular Pharmacology Branch, DTP, NCI, 2024).

Test system: 648629-189-R-J1-PDC spheroids with HUVEC/MSC, viability
Test: Anticancer human tumor 648629-189-R-J1-PDC patient-derived bladder carcinoma cell line growth inhibition [PI3K]
Details: for IC50: curve of first compound; for viability, T/C: stronger effect = lower value
Description: Combinatorial screen of targeted agents with the PI3K inhibitors inavolisib, alpelisib, duvelisib, and copanlisib in multi-cell type tumor spheroids
A high-throughput screen of multi-cell type tumor spheroids was designed to identify active combinations of targeted small molecules and PI3K pathway inhibitors. Complex spheroids include a stromal component modeled by human endothelial cells (HUVEC) and fibroblasts modeled by human mesenchymal stem cells (MSCs). The concentration ranges selected for each drug and investigational agent were based upon clinically achievable concentrations if the clinical Cmax of the agent was known.
Compounds. The drugs and investigational agents: inavolisib (NSC800729), alpelisib (NSC765974), duvelisib (NSC772469), copanlisib (NSC816437), ipatasertib (NSC767898), afuresertib (NSC778305), talazoparib (NSC767125), sapanisertib (NSC764658), selumetinib (NSC741078), tovorafenib (DAY101, NSC766906), vemurafenib (NSC761431), ravoxertinib (NSC781343), sotorasib (NSC818433), MRTX1133 (NSC 836407), abemaciclib (NSC 768073), palbociclib (NSC758247), venetoclax (NSC 766270), SY5609 (NSC837396), enzalutamide (NSC755605), and darolutamide (NSC825331), were obtained from the National Cancer Institute (NCI) Developmental Therapeutics Program Chemical Repository. The FDA-approved anticancer drug set is available from the NCI Developmental Therapeutics Program. […] The stock solutions were prepared in dimethyl sulfoxide (DMSO, Sigma-Aldrich, St. Louis, MO, cat. D2650) at 800-fold the tested concentration and stored at -70 degrees C prior to their use. All drugs and investigational agents were tested over a range starting from a high concentration at or near the clinical Cmax and decreasing in half-log increments. If the clinical Cmax for an agent had not been determined, the highest concentration tested was 10 microM.
Cell Culture. All cells were maintained in an incubator at 37 degrees C and 5% CO2 with 95% humidity. The PDC lines were cultured according to standard operating procedures established by the NCI PDMR (https://pdmr.cancer.gov/sops/default.htm). All PDCs were thawed and cultured in Matrigel-coated flasks prepared with a working solution of 1X Ham's F-12 nutrient mix, without supplementation (Invitrogen, Waltham, MA, cat. 11765054), 100 U/mL penicillin-streptomycin (Invitrogen, cat. 15140122), and 2.5% Matrigel (Corning Inc., Corning, NY, cat. 354248) for the first three passages. The 354836-022-R-J1-PDC, 475296-252-R-J1-PDC, and 997726-040-R-J2-PDC lines were cultured in 6A media, which includes advanced DMEM/F-12 (Thermo Fisher Scientific, cat. 12634028), 10 mM HEPES (Thermo Fisher Scientific, cat. 15630080), 1X GlutaMAX supplement (Thermo Fisher Scientific, cat. 35050061), 0.1 mg/mL primocin (InvivoGen, San Diego, CA, cat. ant-pm-2), 10% defined fetal bovine serum, heat inactivated (HyClone Laboratories Inc., Logan, UT, cat. SH30070.03HI), 50% L-WRN conditioned media (ATCC, cat. CRL-3276), 1.25 mM N-Acetyl-L-cysteine (Sigma-Aldrich, cat. A9165), 10 mM nicotinamide (Sigma-Aldrich, cat. N0636), 1X B-27 supplement (Thermo Fisher Scientific, cat. 17504044), 1X N-2 supplement (Thermo Fisher Scientific, cat. 17502048), and 10 microM Y-27632 dihydrochloride (Tocris Bioscience, Bristol, United Kingdom, cat. 1254). The 624824-186-R-J2-PDC line was cultured in 6C/Colon 1B media, which includes all 6A media components plus 50 ng/mL human EGF recombinant protein (Thermo Fisher Scientific, cat. PHG0311). […]
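Note: spheroids exposed to agents for seven days before reading.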
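Throughout, for viability, T/C: percent of vehicle control luminescence where 100% = DMSO treated spheroids.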

CC(=O)c1c(C)c2cnc(Nc3ccc(N4CCNCC4)cn3)nc2n(C2CCCC2)c1=O + CC(Nc1ccc2c(c1)OCCn1cc(N3C(=O)OCC3C(F)F)nc1-2)C(N)=O
IC50 (second compound 0.00316 µM): > 0.1 µM
IC50 (second compound 0.01 µM): > 0.1 µM
IC50 (second compound 0.0316 µM): > 0.1 µM
IC50 (second compound 0.1 µM): > 0.1 µM
IC50 (second compound 0.316 µM): > 0.1 µM
IC50 (second compound 1 µM): > 0.1 µM
viability, T/C (second compound 0.00316 µM, first compound 0.000316 µM): 102%
viability, T/C (second compound 0.00316 µM, first compound 0.001 µM): 103%
viability, T/C (second compound 0.00316 µM, first compound 0.00316 µM): 105%
viability, T/C (second compound 0.00316 µM, first compound 0.01 µM): 95.5%
viability, T/C (second compound 0.00316 µM, first compound 0.0316 µM): 108%
viability, T/C (second compound 0.00316 µM, first compound 0.1 µM): 112%
viability, T/C (second compound 0.01 µM, first compound 0.000316 µM): 101%
viability, T/C (second compound 0.01 µM, first compound 0.001 µM): 103%
viability, T/C (second compound 0.01 µM, first compound 0.00316 µM): 88%
viability, T/C (second compound 0.01 µM, first compound 0.01 µM): 99.4%
viability, T/C (second compound 0.01 µM, first compound 0.0316 µM): 98.9%
viability, T/C (second compound 0.01 µM, first compound 0.1 µM): 104%
viability, T/C (second compound 0.0316 µM, first compound 0.000316 µM): 88.5%
viability, T/C (second compound 0.0316 µM, first compound 0.001 µM): 105%
viability, T/C (second compound 0.0316 µM, first compound 0.00316 µM): 95.9%
viability, T/C (second compound 0.0316 µM, first compound 0.01 µM): 99.9%
viability, T/C (second compound 0.0316 µM, first compound 0.0316 µM): 97.4%
viability, T/C (second compound 0.0316 µM, first compound 0.1 µM): 96.4%
viability, T/C (second compound 0.1 µM, first compound 0.000316 µM): 104%
viability, T/C (second compound 0.1 µM, first compound 0.001 µM): 92.1%
viability, T/C (second compound 0.1 µM, first compound 0.00316 µM): 82.8%
viability, T/C (second compound 0.1 µM, first compound 0.01 µM): 88.3%
viability, T/C (second compound 0.1 µM, first compound 0.0316 µM): 96.2%
viability, T/C (second compound 0.1 µM, first compound 0.1 µM): 102%
viability, T/C (second compound 0.316 µM, first compound 0.000316 µM): 81.5%
viability, T/C (second compound 0.316 µM, first compound 0.001 µM): 87.2%
viability, T/C (second compound 0.316 µM, first compound 0.00316 µM): 85%
viability, T/C (second compound 0.316 µM, first compound 0.01 µM): 82.4%
viability, T/C (second compound 0.316 µM, first compound 0.0316 µM): 76.4%
viability, T/C (second compound 0.316 µM, first compound 0.1 µM): 94.5%
viability, T/C (second compound 1 µM, first compound 0.000316 µM): 67%
viability, T/C (second compound 1 µM, first compound 0.001 µM): 65.7%
viability, T/C (second compound 1 µM, first compound 0.00316 µM): 78.4%
viability, T/C (second compound 1 µM, first compound 0.01 µM): 80%
viability, T/C (second compound 1 µM, first compound 0.0316 µM): 63.4%
viability, T/C (second compound 1 µM, first compound 0.1 µM): 71.2%
